Data: patent publication US8163909B2, “Substituted hydroxyethyl amine compounds as beta-secretase modulators and methods of use” (Amgen Inc., priority 2007, dated 2012)
Read-outs that look alike come from different tables or passages of the source.

What was measured:
[1] = target: Beta Secretase enzyme (BACE) (Homo sapiens, UniProt P56817); assay: In vitro enzymatic BACE FRET (fluorescence resonance energy transfer) assay; type: biochemical;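 note: fluorescence read after 1 h with 50 nM quenched peptide substrate spanning the BACE cleavage site, in pH 4.2 acetate buffer containing 10% DMSO and nonionic detergent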
[2] = system: Aβ40 in conditioned medium of cells stably expressing Amyloid Precursor Protein (APP); assay: In vitro BACE cell-based assay (Aβ40 in conditioned medium, sandwich ELISA); conditions: Homo sapiens;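 note: compounds added as a dilution series, secreted peptide quantified by europium time-resolved fluorescence readout, potency fitted from percent of control versus compound concentration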
[3] = BACE enzyme FRET assay, read-out: BACE1 FRET assay (IC50)
[4] = HEK293, HEK cells, cell-based assay, read-out: HEK cell assay (IC50)
[5] = Table 1, read-out: BACE1 FRET assay
[6] = HEK293, Table 1, HEK cells, read-out: HEK cell assay
[7] = BACE enzyme assay, read-out: BACE1 FRET assay (IC50)

Sequence of Beta Secretase enzyme (BACE) (P56817 46-501): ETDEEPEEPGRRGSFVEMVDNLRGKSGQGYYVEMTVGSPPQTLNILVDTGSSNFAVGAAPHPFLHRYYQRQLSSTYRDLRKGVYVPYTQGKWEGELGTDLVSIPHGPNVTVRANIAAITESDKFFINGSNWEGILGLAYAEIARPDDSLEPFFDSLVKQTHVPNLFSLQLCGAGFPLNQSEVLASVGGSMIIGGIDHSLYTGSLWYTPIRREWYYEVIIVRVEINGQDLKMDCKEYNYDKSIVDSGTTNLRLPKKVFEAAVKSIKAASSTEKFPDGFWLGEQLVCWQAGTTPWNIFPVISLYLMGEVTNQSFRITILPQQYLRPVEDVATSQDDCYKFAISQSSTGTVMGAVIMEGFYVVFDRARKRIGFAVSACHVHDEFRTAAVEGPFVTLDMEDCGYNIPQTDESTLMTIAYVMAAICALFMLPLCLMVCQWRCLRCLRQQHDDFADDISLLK

IC50 [1, 3] | IC50 [2, 4] | IC50 [1, 7] | SMILES | other results
0.0956 µM | 0.0824 µM | – | COCC(=O)N[C@@H](Cc1cc(Br)c2c(c1)OCO2)[C@H](O)CN[C@H]1CC2(CCC2)Oc2ncc(CC(C)(C)C)cc21 [compound 204] | –
0.0206 µM | 0.04 µM | – | CC(C)(C)Cc1cnc2c(c1)[C@@H](NC[C@@H](O)[C@H](Cc1ccc3c(c1)OCO3)NC(=O)CCl)CC1(CCC1)O2 [compound 309] | –
– | 2.84 µM | 0.319 µM | CO[C@H](C)C(=O)N[C@@H](Cc1ccc(F)cc1)[C@H](O)CN[C@H]1CC2(CCC2)Oc2c1cc(CC(C)(C)C)nc2NCC(F)(F)F [compound 141, (2R)-N-((1S,2R)-3-(((4′S)-6′-(2,2-dimethylpropyl)-8′-((2,2,2-trifluoroethyl)amino)-3′,4′-dihydrospiro[cyclobutane-1,2′-pyrano[2,3-c]pyridin]-4′-yl)amino)-1-((4-fluorophenyl)methyl)-2-hydroxypropyl)-2-(methyloxy)propanamide] | –
– | 0.497 µM | 0.0265 µM | COCC(=O)N[C@@H](Cc1ccccc1)[C@H](O)CN[C@H]1CC2(CCC2)Oc2c1cc(CC(C)(C)C)nc2N(C)C [compound 113] | –
– | 0.0176 µM | 0.0155 µM | COCC(=O)N[C@@H](Cc1ccc2c(c1)OCO2)[C@H](O)CN[C@H]1CC2(CCC2)Oc2ncc(CC(C)(C)CF)cc21 [compound 181] | –
– | 0.00899 µM | 0.042 µM | CNc1nc(CC(C)(C)C)cc2c1OC1(CCC1)C[C@@H]2NC[C@@H](O)[C@H](Cc1cccc(F)c1)NC(=O)[C@@H](C)OC [compound 139] | –
0.00438 µM | 0.00525 µM | – | COCC(=O)N[C@@H](Cc1cccc(F)c1)[C@H](O)CN[C@H]1CC2(CCC2)Oc2ncc(CC(C)(C)C(F)F)cc21 [compound 218] | –
– | 0.376 µM | 0.0268 µM | CO[C@H](C)C(=O)N[C@@H](Cc1ccc2c(c1)OCO2)[C@H](O)CN[C@H]1CC2(CCC2)Oc2c1cc(CC(C)(C)C)nc2Cl [compound 131] | –
– | 0.229 µM | 0.0173 µM | CO[C@@H](C)C(=O)N[C@@H](Cc1ccc(F)cc1)[C@H](O)CN[C@H]1CC2(CCC2)Oc2c(F)cc(CC(C)(C)C)cc21 [compound 175] | –
0.0137 µM | 0.0444 µM | – | COCC(=O)N[C@@H](Cc1cccc(F)c1)[C@H](O)CN[C@H]1CC2(CCC2)Oc2c(F)cc(CC(C)(C)C)cc21 [compound 221] | –
0.484 µM | 0.333 µM | – | COCC(=O)N[C@@H](Cc1ccc2c(c1)OC(C)(C)O2)[C@H](O)CN[C@H]1CC2(CCC2)Oc2ncc(CC(C)(C)C)cc21 [compound 293] | –

The remaining lines, values behind:

SMILES | IC50 [1, 3] | IC50 [2, 4] | IC50 [1, 7] | other results
CC(=O)NC(Cc1cccc(F)c1)C(O)CNC1CC2(CC(O)C2)Oc2cnccc21 [compound 237, N-((1S,2R)-1-((3-fluorophenyl)methyl)-2-hydroxy-3-(((1r,3R,4′S)-3-hydroxy-3′,4′-dihydrospiro[cyclobutane-1,2′-pyrano[2,3-c]pyridin]-4′-yl)amino)propyl)acetamide] | 6.42 µM | 2.45 µM | – | –
COCC(=O)N[C@@H](Cc1cccc(F)c1)[C@H](O)CN[C@H]1CC2(CCC2)Oc2ncc(C[C@H](C)C(F)(F)F)cc21 [compound 325] | – | – | – | IC50 [1, 5]: 0.00371 µM; IC50 [2, 6]: 0.0137 µM
CO[C@H](C)C(=O)N[C@@H](Cc1cc(F)c2c(c1)OCO2)[C@H](O)CN[C@H]1CC2(CCC2)Oc2ncc(CC(C)(C)C)cc21 [compound 303] | 0.00901 µM | 0.0214 µM | – | –
COCC(=O)NC(Cc1ccc2c(c1)OCO2)C(O)CNC1CC2(CC(O)C2)Oc2ncc(CC(C)C)cc21 [compound 246, N-((1S,2R)-1-(1,3-benzodioxol-5-ylmethyl)-2-hydroxy-3-(((1s,3S,4′S)-3-hydroxy-6′-(2-methylpropyl)-3′,4′-dihydrospiro[cyclobutane-1,2′-pyrano[2,3-b]pyridin]-4′-yl)amino)propyl)-2-(methyloxy)acetamide] | 0.0135 µM | 0.0164 µM | – | –
CC(=O)N[C@@H](Cc1ccc(F)c(Br)c1)[C@H](O)CN(C)[C@H]1CC2(CCC2)Oc2ncc(CC(C)(C)C)cc21 [compound 354] | – | – | – | IC50 [1, 5]: 4.78 µM; IC50 [2, 6]: 3.49 µM
CC(=O)N[C@@H](Cc1ccc(F)cc1)[C@H](O)CN[C@H]1C[C@@]2(CC[C@H]2O)Oc2ncc(CC(C)(C)C)cc21 [compound 116] | – | 0.148 µM | 0.117 µM | –
CO[C@H](C)C(=O)N[C@@H](Cc1ccc(F)cc1)[C@H](O)CN[C@H]1CC2(CCC2)Oc2c(-c3ccncc3)cc(CC(C)(C)F)cc21 [compound 577] | – | – | – | IC50 ([1]; read-out: BACE1 FRET assay (IC50)): 0.115 µM; IC50 ([2]; HEK293, HEK cells, read-out: HEK cell assay (IC50)): 0.057 µM
CC(=O)N[C@@H](Cc1ccc2c(c1)OCO2)[C@H](O)CN[C@H]1CC2(CCC2)Oc2ncc(CC(C)(C)C#N)cc21 [compound 88] | – | 0.016 µM | 0.0485 µM | –
CC(=O)N[C@@H](Cc1cc(F)cc(F)c1)[C@H](O)CN[C@H]1CC2(CCCC2)C(=O)c2ccc(CC(C)(C)C)cc21 [compound 90] | – | 0.0747 µM | 0.0103 µM | –
CC(=O)N[C@@H](Cc1ccc2c(c1)OCO2)[C@H](O)CN[C@H]1CC2(CCC2)Oc2ncc(CC3(C(F)(F)F)CC3)cc21 [compound 312] | 0.0617 µM | 0.197 µM | – | –
CNc1nc(CC(C)(C)C)cc2c1OC1(CCC1)C[C@@H]2N(C)C[C@@H](O)[C@H](Cc1ccc2c(c1)OCO2)NC(=O)[C@@H](C)OC [compound 145] | – | 0.777 µM | 0.298 µM | –
CO[C@H](C)C(=O)N[C@@H](Cc1ccc2c(c1)OCO2)[C@H](O)CN[C@H]1CC2(CCC2)Oc2ncc([C@H](F)C(C)(C)C)cc21 [compound 330] | – | – | – | IC50 [1, 5]: 0.0221 µM; IC50 [2, 6]: 0.0439 µM
CC(=O)N[C@@H](Cc1ccc(Cl)c(F)c1)[C@H](O)CN[C@H]1CC2(CCC2)Oc2ncc(CC(C)(C)C(F)F)cc21 [compound 225] | 0.00922 µM | 0.0239 µM | – | –
C[C@H](F)C(=O)N[C@@H](Cc1ccc2c(c1)OCO2)[C@H](O)CN[C@H]1CC2(CCC2)Oc2ncc(CC(C)(C)C)cc21 [Example 483] | – | – | – | IC50 ([1]; Table 2, read-out: BACE1 FRET assay): 0.018 µM; IC50 ([2]; HEK293, Table 2, HEK cells, read-out: HEK cell assay): 0.049 µM
CC(=O)N[C@@H](Cc1ccccc1)[C@H](O)CN[C@H]1CC2(CCC2)Oc2ncc(C[C@H](C)C(F)(F)F)cc21 [compound 316] | – | – | – | IC50 [1, 5]: 0.0136 µM; IC50 [2, 6]: 0.0497 µM
CC(=O)N[C@@H](Cc1ccc(F)cc1)[C@H](O)CN[C@@H]1c2cc(CC(C)(C)C)cnc2OC2(CCC2)[C@@H]1F [compound 358] | – | – | – | IC50 [1, 5]: 0.0224 µM; IC50 [2, 6]: 0.353 µM
COCC(=O)NC(Cc1ccc2c(c1)OCO2)C(O)CNC1CC2(CC(O)C2)Oc2cnccc21 [compound 242, N-((1S,2R)-1-(1,3-benzodioxol-5-ylmethyl)-2-hydroxy-3-(((1s,3S,4′S)-3-hydroxy-3′,4′-dihydrospiro[cyclobutane-1,2′-pyrano[2,3-c]pyridin]-4′-yl)amino)propyl)-2-(methyloxy)acetamide] | 23.9 µM | 1.16 µM | – | –
CC(=O)N[C@@H](Cc1cccc(F)c1)[C@H](O)CN[C@H]1CC2(CCC2)Oc2ncc(CC(C)(C)C(F)F)cc21 [compound 217] | 0.00292 µM | 0.00298 µM | – | –
CC#Cc1cccc(C[C@H](NC(=O)[C@@H](C)OC)[C@H](O)CN[C@H]2CC3(CCC3)Oc3ncc(CC(C)(C)C)cc32)c1 [compound 895] | – | – | – | IC50 ([1]; BACE enzyme assay, IC50's in uM, read-out: BACE1 FRET assay): 0.016 µM; IC50 ([2]; HEK293, cell-based assay, HEK cells, IC50's in uM, read-out: HEK cell assay): 0.017 µM
CO[C@H](C)C(=O)N[C@@H](Cc1cccc(F)c1)[C@H](O)CN[C@H]1CC2(CCC2)Oc2ncc(CC(C)(C)C(F)F)cc21 [compound 219] | 0.00508 µM | 0.00599 µM | – | –
CO[C@H](C)C(=O)N[C@@H](Cc1cc(Cl)c2c(c1)OCO2)[C@H](O)CN[C@H]1CC2(CCC2)Oc2ncc(CC(C)(C)C)cc21 [compound 209] | 0.0122 µM | 0.0181 µM | – | –
